ChEMBL document CHEMBL1201862, “PubChem BioAssay data set” (2004)
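Where inhibition never reached the appropriate level, the endpoint shown equals the highest concentration tested. Otherwise, values were interpolated linearly from a five-concentration, 48-hour dose response in 96-well plates. GI50: concentration for 50% inhibition of growth.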 Calls of active or inactive are those of the source. Rule as the data show it: active = GI50 up to about 1.1 µM and inactive = higher.

Assays:
Assay in all cases: DTP human tumour cell line panel, 48 h
MDA-MB-231 = test system: MDA-MB-231
SNB-19 = test system: SNB-19
786-0 = test system: 786-0
UO-31 = test system: UO-31
NCI/ADR-RES = test system: NCI/ADR-RES
ACHN = test system: ACHN
RXF 393 = test system: RXF 393
IGROV-1 = test system: IGROV-1
SF-539 = test system: SF-539
MDA-N = test system: MDA-N
HL-60 = test system: HL-60
SF-268 = test system: SF-268
A549 = test system: A549
RPMI-8226 = test system: RPMI-8226
A498 = test system: A498
UACC-62 = test system: UACC-62
KM12 = test system: KM12
M14 = test system: M14
NCI-H522 = test system: NCI-H522

SMILES | GI50 (MDA-MB-231) | GI50 (SNB-19) | GI50 (786-0) | GI50 (UO-31) | GI50 (NCI/ADR-RES) | GI50 (ACHN) | GI50 (RXF 393) | GI50 (IGROV-1) | GI50 (SF-539) | GI50 (MDA-N) | GI50 (HL-60) | GI50 (SF-268) | GI50 (A549) | GI50 (RPMI-8226) | GI50 (A498) | GI50 (UACC-62) | GI50 (KM12) | GI50 (M14) | GI50 (NCI-H522)
Cc1nc2c(=O)n(C)ncc2[nH]1 | > 100 µM (inactive) | > 100 µM (inactive) | > 100 µM (inactive) | > 100 µM (inactive) | > 100 µM (inactive) | > 100 µM (inactive) | > 100 µM (inactive) | > 100 µM (inactive) | > 100 µM (inactive) | > 100 µM (inactive) | 33.4 µM (inactive) | > 100 µM (inactive) | > 100 µM (inactive) | > 100 µM (inactive) | > 100 µM (inactive) | > 100 µM (inactive) | > 100 µM (inactive) | > 100 µM (inactive) | –
COc1ncc(C#CC(=O)c2ccccc2OC)c(OC)n1 | 0.92 µM (active) | 15 µM (inactive) | 1.86 µM (inactive) | 1.55 µM (inactive) | 2.01 µM (inactive) | 1.69 µM (inactive) | 1.71 µM (inactive) | 1.82 µM (inactive) | – | 1.64 µM (inactive) | 0.432 µM (active) | 3.61 µM (inactive) | 5.98 µM (inactive) | 2.61 µM (inactive) | 18.4 µM (inactive) | 2.6 µM (inactive) | 5.7 µM (inactive) | 1.78 µM (inactive) | 0.738 µM (active)
O=[N+]([O-])/C(C(Cl)=C(Cl)Cl)=C(\N1CCCCC1)n1cncn1 | 14.8 µM (inactive) | 17.7 µM (inactive) | 20.4 µM (inactive) | 15.9 µM (inactive) | 20.1 µM (inactive) | 17.7 µM (inactive) | 6.64 µM (inactive) | 9.08 µM (inactive) | 17.1 µM (inactive) | 14.4 µM (inactive) | – | 12.9 µM (inactive) | 19.7 µM (inactive) | 19.1 µM (inactive) | 15.8 µM (inactive) | 15.2 µM (inactive) | 19.5 µM (inactive) | 17.2 µM (inactive) | 15.6 µM (inactive)
Oc1nc2c(c(-c3ccc(F)cc3)n1)COC/C2=C\c1ccc(F)cc1 | > 100 µM (inactive) | > 100 µM (inactive) | > 100 µM (inactive) | > 100 µM (inactive) | > 100 µM (inactive) | > 100 µM (inactive) | > 100 µM (inactive) | > 100 µM (inactive) | > 100 µM (inactive) | > 100 µM (inactive) | – | > 100 µM (inactive) | – | > 100 µM (inactive) | > 100 µM (inactive) | > 100 µM (inactive) | > 100 µM (inactive) | > 100 µM (inactive) | > 100 µM (inactive)
O=C1C(Cl)=C(NCCN2CCOCC2)C(=O)c2c(O)ccc(O)c21 | 2.39 µM (inactive) | 1.81 µM (inactive) | 2.01 µM (inactive) | 2.36 µM (inactive) | 2.09 µM (inactive) | 2.7 µM (inactive) | – | 1.88 µM (inactive) | 1.75 µM (inactive) | 1.9 µM (inactive) | – | 2.28 µM (inactive) | 2.12 µM (inactive) | – | 6.62 µM (inactive) | 1.48 µM (inactive) | 3.23 µM (inactive) | 1.84 µM (inactive) | –
O=C1Nc2ccccc2/C1=N/NC(=O)C(O)(c1ccccc1)c1ccccc1 | 18.1 µM (inactive) | 16.7 µM (inactive) | 35.4 µM (inactive) | 15.6 µM (inactive) | 23.9 µM (inactive) | 29.4 µM (inactive) | 14.6 µM (inactive) | 19.6 µM (inactive) | 15.8 µM (inactive) | 16.9 µM (inactive) | 17.4 µM (inactive) | 27.1 µM (inactive) | 17.1 µM (inactive) | 19.6 µM (inactive) | 18.3 µM (inactive) | 15.8 µM (inactive) | 17.4 µM (inactive) | 16.7 µM (inactive) | –
COC(=O)C1=C(OC(=O)c2ccccc2)C(C(=O)OC)[C@]2(O)[C@@H](C(=O)OC)[C@H]1C[C@@H](c1ccccc1)[C@@H]2C(=O)OC (stereo not given in full) | 15.7 µM (inactive) | 10.7 µM (inactive) | 16.4 µM (inactive) | 2.52 µM (inactive) | 2.62 µM (inactive) | 10.9 µM (inactive) | 3.14 µM (inactive) | 4.69 µM (inactive) | 2.2 µM (inactive) | 1.95 µM (inactive) | 2.02 µM (inactive) | 11.4 µM (inactive) | 9.18 µM (inactive) | 1.74 µM (inactive) | 16.3 µM (inactive) | 11.6 µM (inactive) | 8.63 µM (inactive) | 1.95 µM (inactive) | –
OC1NC2CC3NC(O)C(O)NC3CC2NC1O (stereo not given) | > 100 µM (inactive) | > 100 µM (inactive) | > 100 µM (inactive) | > 100 µM (inactive) | > 100 µM (inactive) | > 100 µM (inactive) | > 100 µM (inactive) | > 100 µM (inactive) | > 100 µM (inactive) | > 100 µM (inactive) | > 100 µM (inactive) | > 100 µM (inactive) | > 100 µM (inactive) | > 100 µM (inactive) | – | > 100 µM (inactive) | > 100 µM (inactive) | > 100 µM (inactive) | > 100 µM (inactive)
